Laboratory results from paper PMC10578352, “Identification of a Protein Arginine Methyltransferase 7 (PRMT7)/Protein Arginine Methyltransferase 9 (PRMT9) Inhibitor” (Journal of Medicinal Chemistry, 2023).
pIC50: −log10 of the molar value.

Target: T1, PRMT7 (Homo sapiens, UniProt Q9NVM4)
T1 construct: PRMT7 (residues 2–692, C-terminus); with an N-terminal His-tag; His (N); purchased Reaction Biology Corporation
T1 sequence (Q9NVM4 2-692): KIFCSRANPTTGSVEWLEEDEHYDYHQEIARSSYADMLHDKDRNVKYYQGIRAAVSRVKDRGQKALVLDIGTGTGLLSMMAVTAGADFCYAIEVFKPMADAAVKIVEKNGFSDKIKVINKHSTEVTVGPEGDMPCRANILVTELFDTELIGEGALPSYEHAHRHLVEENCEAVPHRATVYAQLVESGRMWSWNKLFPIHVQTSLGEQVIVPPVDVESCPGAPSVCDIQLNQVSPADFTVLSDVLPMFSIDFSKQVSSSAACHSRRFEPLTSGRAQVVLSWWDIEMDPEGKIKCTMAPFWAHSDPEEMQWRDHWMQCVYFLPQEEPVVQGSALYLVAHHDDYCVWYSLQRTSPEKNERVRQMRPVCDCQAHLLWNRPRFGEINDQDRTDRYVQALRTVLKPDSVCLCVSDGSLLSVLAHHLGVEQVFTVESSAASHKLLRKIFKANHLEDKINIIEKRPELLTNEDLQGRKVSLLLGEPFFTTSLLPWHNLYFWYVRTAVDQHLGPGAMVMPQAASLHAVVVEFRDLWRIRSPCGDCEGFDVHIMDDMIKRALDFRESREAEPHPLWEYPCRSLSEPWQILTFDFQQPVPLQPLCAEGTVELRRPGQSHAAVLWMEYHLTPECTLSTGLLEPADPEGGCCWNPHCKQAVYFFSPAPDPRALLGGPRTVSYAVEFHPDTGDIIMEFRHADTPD
Experiment: HotSpot radioisotope-based filter assay, PRMT7
Type: biochemical
Details: 5 μM GST-GAR, 3H-SAM 1 μM
Description: Then, ^3H-SAM (final concentration of 1 μM) was delivered into the reaction mixture to initiate the reaction. After incubation for 60 min at 30 °C, the reaction mixture was delivered to filter-paper for detection (as assessed by scintillation). Data were analyzed using Excel and GraphPad Prism 6.0 software (GraphPad Software Inc., San Diego, CA) for IC50 curve fits using sigmoidal dose vs response - variable slope (four parameters) equations.

COC(=O)c1cc(O)c2cc(NC(=O)NCCCNC(=N)NC[C@H]3O[C@@H](n4cnc5c(N)ncnc54)[C@H](O)[C@@H]3O)cc(C(F)(F)F)c2c1 [1j, Methyl 6-(3-(3-(3-(((2R,3S,4R,5R)-5-(6-Amino-9H-purin-9-yl)-3,4-dihydroxytetrahydrofuran-2-yl)methyl)guanidino)propyl)ureido)-4-hydroxy-8-(trifluoromethyl)-2-naphthoate]
pIC50: 5.25
